Measurements published in ChEMBL document CHEMBL3046660, “Synthesis, cytotoxic, and DNA binding studies of novel fluorinated condensed pyrano pyrazoles” (Med Chem Res, 2013).
The source made the active and inactive calls. No cut-off for these calls is given here.

Assays:
[1] = system: MRC5; test: Cytotoxicity against Homo sapiens (human) MRC5 cells assessed as inhibition of cell viability by MTT assay; type: cell-based
[2] = system: HeLa; test: Cytotoxicity against Homo sapiens (human) HeLa cells assessed as inhibition of cell viability by MTT assay; type: functional, cell-based
[3] = system: A549; test: Cytotoxicity against Homo sapiens (human) A549 cells assessed as inhibition of cell viability by MTT assay; type: functional, cell-based
[4] = Binding affinity to DNA assessed as peak current at 1 mM at potential of 1.3 V by cyclic voltammetry
[5] = Binding affinity to DNA assessed as peak current at 1 mM at potential of 0.45 V by cyclic voltammetry
[6] = Binding affinity to DNA assessed as peak current at 1 mM measured at potential of 1.3 V at 3 hr after drug addition by cyclic voltammetry in presence of 3 mM cytosine
[7] = Binding affinity to DNA assessed as peak current at 1 mM measured at potential of 0.45 V at 3 hr after drug addition by cyclic voltammetry in presence of 3 mM cytosine
[8] = Binding affinity to DNA assessed as peak current at 1 mM measured at potential of 1.3 V at 30 min after drug addition by cyclic voltammetry in presence of 1 mM cytosine
[9] = Binding affinity to DNA assessed as peak current at 1 mM measured at potential of 1.3 V immediately after drug addition by cyclic voltammetry in presence of 1 mM cytosine
[10] = Binding affinity to DNA assessed as peak current at 1 mM measured at potential of 0.45 V immediately after drug addition by cyclic voltammetry in presence of 1 mM cytosine

SMILES	IC50 [1] [µM]	IC50 [2] [µM]	IC50 [3] [µM]	Activity [4]	Activity [5]	Activity [6]	Activity [7]	Activity [8]	Activity [9]	Activity [10]
N#CC1=C(N)Oc2c(c(C(F)(F)F)nn2-c2cccc(Cl)c2)C1c1ccco1 (stereo not given)	> 100	> 100	> 100	–	–	–	–	–	–	–
COc1cccc(C2C(C#N)=C(N)Oc3c2c(C(F)(F)F)nn3-c2ccccc2)c1 (stereo not given)	> 100	> 100	> 100	–	–	–	–	–	–	–
Cc1ccc(C2C(C#N)=C(N)Oc3c2c(C(F)(F)F)nn3-c2ccc(F)cc2)cc1 (stereo not given)	> 100	> 100	> 100	–	–	–	–	–	–	–
COc1ccc(C2C(C#N)=C(N)Oc3c2c(C(F)(F)F)nn3-c2cccc(Cl)c2)cc1 (stereo not given)	> 100	> 100	89.4	–	–	–	–	–	–	–
N#CC1=C(N)Oc2c(c(C(F)(F)F)nn2-c2ccc(F)cc2)C1c1cccs1 (stereo not given)	> 100	> 100	> 100	–	–	–	–	–	–	–
N#CC1=C(N)Oc2c(c(C(F)(F)F)nn2-c2ccccc2)C1c1ccco1 (stereo not given)	> 100	> 100	> 100	–	–	–	–	–	–	–
N#CC1=C(N)Oc2c(c(C(F)(F)F)nn2-c2ccccc2)C1c1cccs1 (stereo not given)	> 100	74.1	75.5	–	–	–	–	–	–	–
N#CC1=C(N)Oc2c(c(C(F)(F)F)nn2-c2ccccc2)C1c1ccc([N+](=O)[O-])cc1 (stereo not given)	> 100	> 100	> 100	–	–	–	–	–	–	–
N#CC1=C(N)Oc2c(c(C(F)(F)F)nn2-c2cccc(Cl)c2)C1c1ccc([N+](=O)[O-])cc1 (stereo not given)	> 100	> 100	> 100	–	–	–	–	–	–	–
COc1ccc(C2C(C#N)=C(N)Oc3c2c(C(F)(F)F)nn3-c2ccc(F)cc2)cc1 (stereo not given)	> 100	> 100	10.3	Active	Active	inactive	Active	Active	inactive	Active
N#CC1=C(N)Oc2c(c(C(F)(F)F)nn2-c2ccc(F)cc2)C1c1ccc([N+](=O)[O-])cc1 (stereo not given)	> 100	> 100	> 100	–	–	–	–	–	–	–
